Source: ChEMBL document CHEMBL3045629, “Synthesis and Herbicidal Activity of Hydantocidin Analogues: Modification of the Carbonyl Groups in Spirohydantoin” (1995)

Key:
Format in all cases: functional
Abutilon theophrasti = assay: Herbicidal activity against three-leaf stage Abutilon theophrasti (velvetleaf) exposed to foliar compound spraying at 1000 ppm measured 10 days after compound treatment
Ambrosia artemisiifolia = assay: Herbicidal activity against three-leaf stage Ambrosia artemisiifolia (ragweed) exposed to foliar compound spraying at 1000 ppm measured 10 days after compound treatment
Echinochloa crus-galli = assay: Herbicidal activity against three-leaf stage Echinochloa crus-galli (barnyard grass) exposed to foliar compound spraying at 1000 ppm measured 10 days after compound treatment
Solanum nigrum = assay: Herbicidal activity against three-leaf stage Solanum nigrum (black nightshade) exposed to foliar compound spraying at 1000 ppm measured 10 days after compound treatment
Sorghum halepense = assay: Herbicidal activity against three-leaf stage Sorghum halepense (Johnson grass) exposed to foliar compound spraying at 1000 ppm measured 10 days after compound treatment
Xanthium strumarium = assay: Herbicidal activity against three-leaf stage Xanthium strumarium (cocklebur) exposed to foliar compound spraying at 1000 ppm measured 10 days after compound treatment
Ipomoea purpurea = assay: Herbicidal activity against three-leaf stage Ipomoea purpurea (common morning-glory) exposed to foliar compound spraying at 1000 ppm measured 10 days after compound treatment
Setaria viridis = assay: Herbicidal activity against three-leaf stage Setaria viridis (green foxtail) exposed to foliar compound spraying at 1000 ppm measured 10 days after compound treatment
Panicum dichotomiflorum = assay: Herbicidal activity against three-leaf stage Panicum dichotomiflorum exposed to foliar compound spraying at 1000 ppm measured 10 days after compound treatment
Digitaria sanguinalis = assay: Herbicidal activity against three-leaf stage Digitaria sanguinalis (hairy crabgrass) exposed to foliar compound spraying at 1000 ppm measured 10 days after compound treatment

Row | Compound | Activity (Abutilon theophrasti) [%] | Activity (Ambrosia artemisiifolia) [%] | Activity (Echinochloa crus-galli) [%] | Activity (Solanum nigrum) [%] | Activity (Sorghum halepense) [%] | Activity (Xanthium strumarium) [%] | Activity (Ipomoea purpurea) [%] | Activity (Setaria viridis) [%] | Activity (Panicum dichotomiflorum) [%] | Activity (Digitaria sanguinalis) [%]
1 | O=C1NC(NCc2ccccc2)=N[C@]12O[C@H](CO)[C@@H](O)[C@H]2O | 0 | 95 | 0 | 30 | 0 | 95 | 10 | 0 | 0 | 0
2 | O=C1NC[C@]2(N1)O[C@H](CO)[C@@H](O)[C@H]2O | 10 | 10 | 10 | 10 | 10 | 0 | 0 | 10 | 10 | 0
3 | O=C1NC(=O)[C@]2(N1)O[C@H](CO)[C@@H](O)[C@H]2O [HYDANTOCIDIN] | 95 | 95 | 95 | 95 | 95 | 95 | 95 | 95 | 95 | 95
